Source: ChEMBL document CHEMBL1201862, “PubChem BioAssay data set” (2004)
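Growth conditions: 96-well plates. Treatment: test compound, 48 hours, 5 concentrations. Analysis: linear interpolation between bracketing concentrations; unreached endpoints set to highest concentration. The concentration for 50% growth inhibition is given as GI50.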 Calls of active or inactive are those of the source. Cut-off read from the data, not from the text of the source: active = GI50 up to about 1.1 µM and inactive = higher.

Legend:
Test in all cases: NCI-60 cell line screen, 48 h
A549 = tested on: A549
CCRF-CEM = tested on: CCRF-CEM
COLO 205 = tested on: COLO 205
DU-145 = tested on: DU-145
HL-60 = tested on: HL-60
HOP-62 = tested on: HOP-62
HT-29 = tested on: HT-29
K562 = tested on: K562
NCI-H522 = tested on: NCI-H522
OVCAR-3 = tested on: OVCAR-3
OVCAR-5 = tested on: OVCAR-5
OVCAR-8 = tested on: OVCAR-8
RPMI-8226 = tested on: RPMI-8226
RXF 393 = tested on: RXF 393
SF-295 = tested on: SF-295
SN12C = tested on: SN12C
SR = tested on: SR
SW-620 = tested on: SW-620
T47D = tested on: T47D
UACC-257 = tested on: UACC-257

Measured: GI50

c1ccc(CN2COc3c(ccc4c5c(ccc34)CN(Cc3ccccc3)CO5)C2)cc1
inactive: A549 > 100 µM | CCRF-CEM > 100 µM | COLO 205 > 100 µM | DU-145 > 100 µM | HL-60 > 100 µM | HOP-62 > 100 µM | HT-29 > 100 µM | K562 > 100 µM | NCI-H522 > 100 µM | OVCAR-3 > 100 µM | OVCAR-5 > 100 µM | OVCAR-8 > 100 µM | RPMI-8226 > 100 µM | RXF 393 > 100 µM | SF-295 > 100 µM | SN12C > 100 µM | SR > 100 µM | SW-620 > 100 µM | T47D > 100 µM | UACC-257 > 100 µM

COc1cccc2c1C(CO)N1C(C#N)C3CC(C(=O)O)C(C1C2)N3C (configuration not stated)
active: CCRF-CEM 1.1 µM | DU-145 0.481 µM | NCI-H522 0.0615 µM | T47D 0.324 µM
inactive: A549 7.52 µM | COLO 205 1.26 µM | HL-60 1.52 µM | HT-29 1.64 µM | K562 1.63 µM | OVCAR-3 1.23 µM | OVCAR-5 2.85 µM | OVCAR-8 1.68 µM | RPMI-8226 1.15 µM | RXF 393 1.27 µM | SF-295 4.7 µM | SN12C 1.64 µM | SR 2.08 µM | SW-620 2.71 µM | UACC-257 1.66 µM

CC[C@@H](O)C[C@H]1CCC[C@@]2(C[C@@H]3OC(=O)/C=C/[C@@](C)(O)[C@@H](O)[C@H](C)[C@@H](O)[C@H](OC4CCC(N(C)C)C(C)O4)[C@@H](O)[C@](C)(O)CCCCC/C=C/[C@@H]4CC(C)(C)O[C@@]4(O)C[C@H](O2)[C@H]3C)O1 (some centres not stated)
inactive: CCRF-CEM 15.9 µM | DU-145 11.3 µM | HL-60 3.75 µM | HOP-62 13.4 µM | HT-29 3.49 µM | OVCAR-3 12.9 µM | OVCAR-5 14.8 µM | RXF 393 14.7 µM | SN12C 16.4 µM | SW-620 16.6 µM
active: A549 < 0.01 µM | COLO 205 < 0.01 µM | K562 < 0.01 µM | NCI-H522 < 0.01 µM | OVCAR-8 < 0.01 µM | RPMI-8226 < 0.01 µM | SF-295 < 0.01 µM | SR 1.06 µM | T47D < 0.01 µM | UACC-257 < 0.01 µM

C=C(CCC/C(C)=C/C=C/[C@]1(C)CCCc2ccoc21)CC(=O)O
inactive: A549 > 100 µM | CCRF-CEM 50 µM | COLO 205 > 100 µM | DU-145 42.5 µM | HL-60 43.6 µM | HOP-62 > 100 µM | HT-29 > 100 µM | K562 84.3 µM | NCI-H522 > 100 µM | OVCAR-3 54.8 µM | OVCAR-5 > 100 µM | OVCAR-8 > 100 µM | RPMI-8226 54.2 µM | RXF 393 > 100 µM | SF-295 > 100 µM | SN12C > 100 µM | SR 39.3 µM | SW-620 > 100 µM | T47D > 100 µM | UACC-257 > 100 µM

COc1ccc(C=O)cc1Oc1ccc(C[C@H]2c3c(cc(OC)c4c3Oc3cc5c(cc3O4)CCN(C)C5=O)CCN2C)cc1
inactive: A549 36.2 µM | CCRF-CEM 10 µM | COLO 205 20.8 µM | DU-145 12.1 µM | HL-60 8.85 µM | HOP-62 8.32 µM | HT-29 7.52 µM | K562 6.05 µM | NCI-H522 9.44 µM | OVCAR-3 8.43 µM | OVCAR-5 12.1 µM | OVCAR-8 7.87 µM | RPMI-8226 5.04 µM | RXF 393 3.59 µM | SF-295 7.41 µM | SN12C 12.9 µM | SR 9.38 µM | SW-620 12.1 µM | T47D 33.7 µM | UACC-257 8.04 µM

Cc1ccc(C)c(NC(=O)C(Cc2c[nH]c3ccccc23)NC(=O)OCc2ccccc2)c1 (configuration not stated)
inactive: A549 13.2 µM | CCRF-CEM 1.42 µM | COLO 205 13.2 µM | DU-145 13.5 µM | HL-60 3 µM | HOP-62 48.8 µM | HT-29 12.4 µM | K562 12.7 µM | NCI-H522 16.1 µM | OVCAR-3 29.7 µM | OVCAR-5 25.6 µM | OVCAR-8 17.5 µM | RPMI-8226 12 µM | RXF 393 6.34 µM | SF-295 25.8 µM | SN12C 24.7 µM | SR 14.3 µM | SW-620 15.1 µM | T47D 9.18 µM | UACC-257 10.6 µM

C(=C\c1cccc(/C=C/c2ccccn2)n1)/c1ccccn1
inactive: A549 > 100 µM | CCRF-CEM 37 µM | COLO 205 39.8 µM | DU-145 > 100 µM | HL-60 72.4 µM | HOP-62 > 100 µM | HT-29 56.8 µM | K562 47.8 µM | NCI-H522 13.4 µM | OVCAR-3 79.3 µM | OVCAR-5 > 100 µM | OVCAR-8 36.2 µM | RPMI-8226 43.6 µM | RXF 393 62.1 µM | SF-295 66.2 µM | SN12C 60.7 µM | SR 62.2 µM | SW-620 59.4 µM | T47D 44.5 µM | UACC-257 > 100 µM

c1ccc(CC(Nc2cccnc2)c2ccccc2)cc1 (configuration not stated)
inactive: A549 25.6 µM | CCRF-CEM 16.4 µM | COLO 205 19.8 µM | DU-145 29.6 µM | HL-60 23.9 µM | HOP-62 24.5 µM | HT-29 16.4 µM | K562 17.5 µM | NCI-H522 22.4 µM | OVCAR-3 16.4 µM | OVCAR-5 33.3 µM | OVCAR-8 28.2 µM | RPMI-8226 17 µM | RXF 393 18.6 µM | SF-295 18.5 µM | SN12C 20.6 µM | SR 23.9 µM | SW-620 33 µM | T47D 28.1 µM | UACC-257 22 µM

COc1ccc2c(c1)c(=O)c1c(NCCNCCO)ccc3c(=O)n(CCN(C)C)c(=O)n2c31
active: A549 < 0.0255 µM | CCRF-CEM 0.104 µM | COLO 205 0.0467 µM | DU-145 < 0.0337 µM | HOP-62 0.109 µM | HT-29 0.0352 µM | K562 0.0333 µM | NCI-H522 < 0.0182 µM | OVCAR-3 0.331 µM | OVCAR-5 0.227 µM | OVCAR-8 0.0604 µM | RPMI-8226 0.0912 µM | RXF 393 0.114 µM | SF-295 0.0861 µM | SN12C < 0.0198 µM | SR < 0.01 µM | SW-620 < 0.0236 µM | T47D 0.0769 µM | UACC-257 0.261 µM
inactive: HL-60 > 100 µM

COC(=O)c1c(C)cccc1/C=C1\Cc2ccc(C)c(C)c2C1=O
inactive: A549 > 100 µM | CCRF-CEM > 10 µM | DU-145 > 100 µM | HL-60 > 100 µM | HOP-62 41.7 µM | HT-29 > 100 µM | K562 8.32 µM | NCI-H522 78.9 µM | OVCAR-3 > 100 µM | OVCAR-5 > 100 µM | OVCAR-8 > 100 µM | RPMI-8226 56.2 µM | RXF 393 86.5 µM | SF-295 > 100 µM | SN12C > 100 µM | SR 8.39 µM | SW-620 > 100 µM | T47D 76.7 µM | UACC-257 > 100 µM

CC(C)(C)c1cc(C(C)(C)C)c(SC2OC(CO)C(O)C(O)C2O)c(O)c1O (configuration not stated)
inactive: A549 3.84 µM | CCRF-CEM 5.27 µM | COLO 205 8.45 µM | DU-145 13.7 µM | HL-60 3.27 µM | HOP-62 13.2 µM | HT-29 7.1 µM | K562 2.93 µM | NCI-H522 7.21 µM | OVCAR-3 7.66 µM | OVCAR-5 9.18 µM | OVCAR-8 7.62 µM | RPMI-8226 15.1 µM | SF-295 8.39 µM | SN12C 10.8 µM | SR 4.52 µM | SW-620 19.3 µM | T47D 17.6 µM | UACC-257 20.9 µM
active: RXF 393 0.36 µM

CCOC(=O)C1(Cc2ccccc2)CCN(C(=O)c2ccccc2)C2C1C2(Cl)Cl (configuration not stated)
inactive: A549 30.1 µM | CCRF-CEM 20 µM | COLO 205 18.3 µM | DU-145 33 µM | HL-60 12.2 µM | HOP-62 27.6 µM | HT-29 16.6 µM | K562 27 µM | NCI-H522 18.1 µM | OVCAR-3 18.3 µM | OVCAR-5 29.9 µM | OVCAR-8 28.3 µM | RPMI-8226 13.2 µM | RXF 393 16 µM | SF-295 23.3 µM | SN12C 16.4 µM | SR 23.6 µM | SW-620 25.7 µM | T47D 14.1 µM | UACC-257 15.2 µM

Nc1nc(Nc2ccccc2)sc1C(=O)c1cccs1
inactive: A549 14.2 µM | CCRF-CEM 2.81 µM | COLO 205 7.06 µM | DU-145 8.97 µM | HL-60 3.57 µM | HOP-62 22.3 µM | HT-29 5.32 µM | K562 9.86 µM | NCI-H522 11 µM | OVCAR-3 3.94 µM | OVCAR-5 11.7 µM | OVCAR-8 21.1 µM | RPMI-8226 12.8 µM | RXF 393 5.93 µM | SF-295 21.8 µM | SN12C 16 µM | SR 1.74 µM | SW-620 11.6 µM | T47D 21.2 µM | UACC-257 17.7 µM

O=C(NC(Cc1c[nH]cn1)C(=O)N1CCCC1)C1CCCC1 (configuration not stated)
inactive: A549 > 100 µM | CCRF-CEM > 100 µM | COLO 205 > 100 µM | DU-145 > 100 µM | HL-60 > 100 µM | HOP-62 > 100 µM | HT-29 > 100 µM | K562 > 100 µM | NCI-H522 > 100 µM | OVCAR-3 > 100 µM | OVCAR-5 > 100 µM | OVCAR-8 > 100 µM | RPMI-8226 > 100 µM | RXF 393 > 100 µM | SF-295 > 100 µM | SN12C > 100 µM | SR 54.1 µM | SW-620 > 100 µM | T47D > 10 µM
